In PMC3644400 (Investigational New Drugs, 2012):
Where two headings read alike, the source gives them in different places.

How the values were obtained:
HER2 = details: read-out: IC50 HER2; cited from earlier work
[1] = Phase I dose escalation: MTD and dose-limiting toxicity; assay type: in vivo, patients
Method: Docetaxel was initiated at 60 mg/m^2 IV infusion and increased to 75 mg/m^2 IV infusion in the absence of DLT.
A standard ‘3 + 3’ design was used. The MTD was defined as the highest dose of afatinib at which no more than one out of six patients experienced a DLT. Once the MTD was determined, a further 12 evaluable patients were included at the MTD level.

[2] = Plasma pharmacokinetics (HPLC tandem-mass spectrometry); details: MTD group
clinical = details: human, in vivo
ErbB4 = details: read-out: IC50 ErbB4; cited from earlier work
[3] = human, in vivo
advanced NSCLC = details: cited from earlier work; for response rate: advanced NSCLC
[4] = docetaxel (day 1) followed by intermittent erlotinib (days 2–16 every 3 weeks), previously treated advanced NSCLC; cited from earlier work
advanced solid tumors = details: intermittent high-dose gefitinib given prior to docetaxel; cited from earlier work

Question: Which results are given for `CN(C)C/C=C/C(=O)Nc1cc2c(Nc3ccc(F)c(Cl)c3)ncnc2cc1O[C@H]1CCOC1` [afatinib]?
Answer: IC50 (HER2): 14 nM; maximum tolerated dose (MTD) of afatinib ([1]; afatinib days 2–4 with docetaxel 75 mg/m^2 day 1, 3-week cycles): 90 mg/day; MTD and recommended phase II dose of afatinib ([1]; once daily for 3 days following docetaxel 75 mg/m^2): 90 mg; Tmax ([2]; human, in vivo, Afatinib tmax, median, treatment cycle 1 (n = 13)): 3 h; AUC(0-t) (clinical): 995 ng·h/mL; Tmax (clinical): 4.03 h; AUC(0-t) (clinical; 75 mg/m2): 879 ng·h/mL; Cmax (clinical; Afatinib Cmax, gMean): 71.4 ng/mL; Vd/F (clinical; Afatinib Vz/F, gMean): 1500 L; IC50 (ErbB4): […]

Question: Which “Docetaxel AUC0–24, gMean” value [3] does the source give for `CC(=O)O[C@@]12CO[C@@H]1C[C@H](O)[C@@]1(C)C(=O)[C@H](O)C3=C(C)[C@@H](OC(=O)[C@H](O)[C@@H](NC(=O)OC(C)(C)C)c4ccccc4)C[C@@](O)([C@@H](OC(=O)c4ccccc4)[C@H]21)C3(C)C` [docetaxel] here?
Answer: Its value is 2680 ng·h/mL.

Question: And the “Docetaxel AUC0–∞, gMean ratio cycle 2 to cycle 1” value [3]?
Answer: Its value is 118%.

Question: And the “Docetaxel CL, gMean” value [3]?
Answer: The value was 682 mL/min.

Question: And the “Docetaxel Cmax, gMean” value [3]?
Answer: Its value is 2200 ng/mL.

Question: And the “Docetaxel Cmax, gMean ratio cycle 2 to cycle 1” value [3]?
Answer: The value was 115%.

Question: And the “Docetaxel VSS, gMean” value [3]?
Answer: The value was 487 L.

Question: And the “Docetaxel Vz, gMean” value [3]?
Answer: The value was 1250 L.

Question: And the “Docetaxel tmax, median” value [3]?
Answer: Its value is 1.00 h.

Question: What about the “Docetaxel AUC0–∞, gMean” value ([2]; treatment cycle 2 (n = 8)) of the same molecule?
Answer: Its value is 3260 ng·h/mL.

Question: What about the “Docetaxel t1/2, gMean” value ([2]; treatment cycle 2 (n = 8)) of the same molecule?
Answer: Its value is 21.1 h.

Question: What about the half-life (clinical) of the same molecule?
Answer: The half-life was 20.9 h.

Question: What about the AUC(0-t) (clinical; Docetaxel AUC0–24, gMean) of the same molecule?
Answer: Its AUC(0-t) is 2630 ng·h/mL.

Question: And the clearance (clinical; Docetaxel CL, gMean)?
Answer: The clearance was 712 mL/min.

Question: What about the Cmax (clinical; Docetaxel Cmax, gMean) of the same molecule?
Answer: Its Cmax is 2070 ng/mL.

Question: And the Vd (clinical; Docetaxel VSS, gMean)?
Answer: The Vd was 488 L.

Question: And the Vd (clinical; Docetaxel Vz, gMean)?
Answer: Its Vd is 1290 L.

Question: And the Tmax (clinical; Docetaxel tmax, median)?
Answer: Its Tmax is 1 h.

Question: What about the AUC(0-inf) (clinical; iv, 75 mg/m2) of the same molecule?
Answer: The AUC(0-inf) was 3160 ng·h/mL.

Question: Which response rate (advanced NSCLC; chemotherapy followed by erlotinib) does the source give for `C#Cc1cccc(Nc2ncnc3cc(OCCOC)c(OCCOC)cc23)c1` [erlotinib] here?
Answer: The response rate was 28%.

Question: And the objective response rate (advanced NSCLC; docetaxel (day 1) followed by intermittent erlotinib (days 2–16 every 3 weeks), previously treated advanced NSCLC)?
Answer: The objective response rate was 35%.

Question: What about the response rate (advanced NSCLC; high-dose erlotinib (days 1 and 2) with carboplatin and paclitaxel (day 3)) of the same molecule?
Answer: Its response rate is 34%.

Question: And the response rate (advanced NSCLC; low-dose erlotinib, same schedule with carboplatin and paclitaxel)?
Answer: The response rate was 18%.

Question: And the “grade 3/4 neutropenia” value [4]?
Answer: Its value is 60%.

Question: Which objective response rate (advanced solid tumors) does the source give for `COc1cc2ncnc(Nc3ccc(F)c(Cl)c3)c2cc1OCCCN1CCOCC1` [gefitinib] here?
Answer: The objective response rate was 11%.
